Reference: article PMC7083565, “In vitro metabolism, reaction phenotyping, enzyme kinetics, CYP inhibition and induction potential of ataluren” (Pharmacology Research & Perspectives, 2020)

Experiments:
[1] = Plasma protein binding (ultrafiltration), human; type: in vitro ADME
Protocol: [^14C]‐Ataluren, at 50, 500, 5000, and 50 000 ng/mL or 0.175, 1.75, 17.5, and 175 µM, in male mouse, rat, dog, monkey, and human plasma, was incubated (n = 3) at 37°C for approximately 15 minutes, transferred into Centrifree® Micropartition Units (30 000 Da molecular weight cutoff, 1 mL capacity; Amicon Inc), and centrifuged at 37°C and 2000 g for approximately 10 minutes so that the amount of the sample filtered was approximately ≤ 20% of the total volume. After centrifugation, the entire ultrafiltrate was weighed and analyzed for radioactivity using liquid scintillation counting. The percent bound = (1‐Cu/Cm)×100, where Cu is the concentration of radioactivity in the ultrafiltrate and Cm is the concentration of radioactivity in the plasma before centrifugation.

[2] = target: T1, CYP2B6 (Homo sapiens, UniProt P20813); assay: CYP inhibition in pooled human liver microsomes: CYP2B6; type: in vitro ADME; conditions: CYP2B6, HLM, estimated, concentrations up to 400 μmol/L
T1 construct: tissue XenoTech LLC, Celsis-In Vitro Technologies, or Tissue Transformation Technologies; host or cells: pooled human liver microsomes
T1 sequence (P20813 1-491): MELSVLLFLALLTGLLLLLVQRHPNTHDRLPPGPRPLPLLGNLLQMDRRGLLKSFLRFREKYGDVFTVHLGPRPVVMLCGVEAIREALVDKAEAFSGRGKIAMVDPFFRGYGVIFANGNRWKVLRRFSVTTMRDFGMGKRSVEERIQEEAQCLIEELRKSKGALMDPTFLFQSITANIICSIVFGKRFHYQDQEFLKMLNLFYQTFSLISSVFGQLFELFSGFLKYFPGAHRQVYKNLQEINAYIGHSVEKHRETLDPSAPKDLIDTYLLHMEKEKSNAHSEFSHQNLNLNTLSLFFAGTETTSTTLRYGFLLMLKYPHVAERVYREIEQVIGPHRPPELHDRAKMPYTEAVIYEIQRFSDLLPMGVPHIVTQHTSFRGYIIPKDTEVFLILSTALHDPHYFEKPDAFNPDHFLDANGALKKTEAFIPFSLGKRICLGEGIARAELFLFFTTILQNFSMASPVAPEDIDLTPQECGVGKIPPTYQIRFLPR
Protocol: The final concentration of each probe substrate was near the experimentally determined Km value for the indicated enzyme. Ataluren or prototypical CYP inhibitors (positive controls) was incubated (n = 3) with probe substrates and HLM in 100 mmol/L phosphate buffer (pH 7.4) in a total volume of approximately 0.25 mL, and the reactions were initiated by the addition of 1 mmol/L NADPH at 37°C. The reactions were carried out using previously established conditions to ensure linearity with respect to protein concentration and incubation time (Table S1). Incubations were stopped with the addition of ice‐cold acetonitrile. Metabolite formation in incubations with test compound and control inhibitors was assessed with LC‐MS/MS methods for each of the reaction products as described in Table S2. […] After 7 minutes incubation at 37°C, the reaction was stopped by the addition of ice‐cold acetonitrile, followed by membrane plate filtration. The filtrates were used for LC‐MS/MS analysis. […] IC50 values were determined by nonlinear regression with GraphPad Prism 5 using the following four‐parameter sigmoidal‐logistic IC50 equation: Fit=background+range-background/[1+I/IC50^slope]
(§1) Where, I is the inhibitor concentration, and background was set to 0 and range to 100, as percent of control values are utilized. K i was determined by nonlinear regression with GraphPad Prism 5 using best fit model.

[3] = target: T2, CYP2C8 (Homo sapiens, UniProt P10632); assay: CYP inhibition in pooled human liver microsomes: CYP2C8; type: in vitro ADME
T2 construct: tissue XenoTech LLC, Celsis-In Vitro Technologies, or Tissue Transformation Technologies; host or cells: pooled human liver microsomes
T2 sequence (P10632 1-490): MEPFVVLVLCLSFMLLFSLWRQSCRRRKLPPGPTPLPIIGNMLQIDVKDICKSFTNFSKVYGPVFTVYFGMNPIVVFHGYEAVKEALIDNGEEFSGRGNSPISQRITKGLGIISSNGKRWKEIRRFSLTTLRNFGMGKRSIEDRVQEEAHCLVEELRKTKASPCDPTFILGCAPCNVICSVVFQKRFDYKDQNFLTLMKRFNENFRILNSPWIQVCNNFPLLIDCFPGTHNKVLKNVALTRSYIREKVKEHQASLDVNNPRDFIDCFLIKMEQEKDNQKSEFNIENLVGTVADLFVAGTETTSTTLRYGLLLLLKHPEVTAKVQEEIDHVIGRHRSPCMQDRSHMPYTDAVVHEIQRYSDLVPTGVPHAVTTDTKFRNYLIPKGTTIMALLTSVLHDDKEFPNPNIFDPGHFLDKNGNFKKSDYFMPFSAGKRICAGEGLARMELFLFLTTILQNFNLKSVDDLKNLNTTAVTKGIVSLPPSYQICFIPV
Protocol: The final concentration of each probe substrate was near the experimentally determined Km value for the indicated enzyme. Ataluren or prototypical CYP inhibitors (positive controls) was incubated (n = 3) with probe substrates and HLM in 100 mmol/L phosphate buffer (pH 7.4) in a total volume of approximately 0.25 mL, and the reactions were initiated by the addition of 1 mmol/L NADPH at 37°C. The reactions were carried out using previously established conditions to ensure linearity with respect to protein concentration and incubation time (Table S1). Incubations were stopped with the addition of ice‐cold acetonitrile. Metabolite formation in incubations with test compound and control inhibitors was assessed with LC‐MS/MS methods for each of the reaction products as described in Table S2. […] After 7 minutes incubation at 37°C, the reaction was stopped by the addition of ice‐cold acetonitrile, followed by membrane plate filtration. The filtrates were used for LC‐MS/MS analysis. Enzyme activity remaining at each nonzero ataluren concentration after incubation was normalized against control sample (zero ataluren concentration, enzyme activity = 100%), and the % remaining enzyme activity values were used for IC50 calculation. IC50 values were determined by nonlinear regression with GraphPad Prism 5 using the following four‐parameter sigmoidal‐logistic IC50 equation: Fit=background+range-background/[1+I/IC50^slope]
as §1

[4] = test system: CYP2C8; assay: CYP induction in primary human hepatocytes: CYP2C8; type: in vitro ADME; conditions: male, 48 h
Protocol: Human hepatocytes isolated from three Caucasian males were transferred to 48‐well collagen‐coated plates at 0.14 × 10^6 cells/well in planting media for attachment. After attachment, planting media was replaced with sandwich media and the cells were incubated until clusters were established. […] The incubation solutions were aspirated and replaced with freshly prepared incubation solutions containing ataluren for an additional 24 hours. […] The incubation solutions were then aspirated and 150 µL of K‐H buffer containing CYP substrates were added. […] Metabolite formation in incubations with test compounds and control inhibitors was assessed with validated LC‐MS/MS methods for each of the reaction products as described in Table S2. Enzymatic activity for each CYP was calculated using the absolute amount of metabolite formed (pmol) divided by hepatocytes in the incubation (million cells) and the incubation time (minute). The relative fold induction in enzymatic activity was calculated by comparing the rate of metabolite formation for treatment groups to that of the solvent control group (reported as vehicle control%) or positive control group (reported as positive control%).

[5] = Steady-state plasma Cmax in DMD patients; type: in vivo, human

## O=C(O)c1cccc(-c2noc(-c3ccccc3F)n2)c1 [ataluren, Ataluren]
[1]; as measured
  free fraction in human plasma: 0.4%
[1]; male, 50 to 50 000 ng/mL, mean ± SD, n = 3, read-out: percentage protein binding (converted)
  fraction unbound at 15 min: 0.004
[2]
  IC50: > 400 µM
[3]; Amodiaquine N-deethylase, pooled HLM, n=3, (95% confidence interval)
  IC50: 163 µM
[3]; CYP2C8, amodiaquine N-deethylase
  mechanism of inhibition: noncompetitive inhibitor
[3]; CYP2C8, noncompetitive, mean ± SE, n = 3
  Ki: 169 ± 6.19 µM
[3]; human, pooled human liver microsomes, pH 7.4, CYP2C8, HLM
  IC50: 165 µM
[4]; 4 µM
  Vehicle control %, Mean: 93.0%
[4]; 400 µM
  Vehicle control %, Mean: 67.6%
[5]; conservative, assuming free fraction value of 1%
  free Cmax at the steady state: ~800 nM
[5]; using free fraction value of 0.4% as measured
  free Cmax at the steady state: around 0.32 µmol/L
